A short description of data set [1]: Particle size determination (SEM image analysis / Nano Particle Analyzer). The class given is physicochemical. As for the experimental part:
The particle size of the NP and inclusion complexes was determined by imaging using scanning electron microscopy (Leitz AMR 1600 T [Amray, Bedford, MA, USA]), with an acceleration potential of 20 kV. Samples were sputter-coated with a gold layer to make them conductive. Then, to determine the particle size, scanning electron microscopy images were analyzed using the ImageJ 1x software, a Java-based graphic design program dedicated to image analysis, to estimate size. The particle size of nano-formulations was determined by using a Nano Particle Analyzer Horiba SZ-100 (Kyoto, Japan). Samples were diluted (1:30) in filtered distilled water before measuring.

In another data set the test system is T. spiralis female worms. Put plainly: In vitro parasitic assay on T. spiralis female worms. More on the design: species or system Trichinella spiralis. How it is done:
CBi mice were orally infected with 10 L1 T. spiralis larvae per gram of body weight and sacrificed on day 6 post-infection (intestinal phase) as described previously. After euthanasia, the small intestine was excised, segmented into equal lengths, and placed in Petri dishes containing 8–12 mL of incubation medium (0.85% NaCl with 250 μg/mL gentamicin). Each segment was opened longitudinally, gently agitated in the medium, and incubated for 4 h at 37 °C in 5% CO2. Following incubation, intestinal pieces were rinsed with medium and discarded. The medium containing released parasites was collected, centrifuged at a low speed, and the pellet was resuspended in 2–3 mL of RPMI 1640 supplemented with 250 μg/mL of gentamicin and 10% fetal bovine serum. Female worms were then isolated under sterile conditions for further assays.
They were stirred at room temperature for 24 h and then filtered through sterile ethyl cellulose 0.2 μm pore filters (Minisart®, Sartorius Stedim Biotech, Göttingen, Germany).
The entire procedure was conducted under sterile conditions as described by Priotti et al.. Female T. spiralis worms obtained as above were incubated overnight in RPMI 1640 supplemented with 250 μg/mL of gentamicin and 10% fetal bovine serum at 37 °C in 5% CO2. […] The MBZ solution served as the positive control, and the culture medium with the solvent served as the negative control. Worms were incubated at 37 °C in a humidified 5% CO2 atmosphere for 30 h and observed under an inverted microscope at 2, 4, 7, 24, and 30 h. Viability was assessed at each time point by motility and morphology to classify worms as live or dead. The number and motility of newborn larvae were also recorded. Median worm survival was analyzed using survival curves. Experiments were performed in duplicate, with data corrected against the negative control.
Survival curves were calculated using Kaplan and Meier’s product limit method (GraphPad Prism® 9.5; GraphPad Software, Inc., San Diego, CA, USA). The significance of the difference among survival curves was determined with the log-rank test.

The nature of a further data set: in vivo. The settings on record: mouse, po, 15 mg/kg. Details: species or system CBi/L and CBi+ mice. How it is done:
Separately, 2.6 g of gelatin powder was dissolved in 10 mL of hot water (60 °C), and 100 μL of this solution was added to each tube before solidification. The mixture was then sonicated in a 60 °C water bath, and 40 mg of powdered commercial chow was added to enhance palatability and ensure complete ingestion. This procedure was developed in our lab and was published in Codina et al..
Following the procedures described by Codina et al., three to four animals per formulation were anesthetized after the drug administration with an intraperitoneal injection of ketamine/xylazine 10:1, 5 min before blood collection. Whole blood (approximately 1.5 mL) samples were taken by cardiac puncture at 0.3, 0.6, 1, 1.2, 2, 2.5, 3, 4, 5, 7, and 24 h post-treatment. Blood was collected into heparinized vials and centrifuged at 9000 rpm for 15 min to obtain plasma, which was transferred to a plastic tube and stored at −20 °C until HPLC analysis.
Briefly, each plasma sample (200 μL) was deproteinized by adding methanol (1 mL), frozen for 30 min at −20 °C, and centrifuged at 15,000 rpm at 4 °C for 12 min. Then, the supernatant was evaporated under vacuum, and the dried samples were stored frozen until analyzed. Samples were reconstituted in 100 μL of the mobile phase and filtered through 0.2 μm polyvinylidene fluoride (PVDF) syringe filters (Agilent, Santa Clara, CA, USA). The mobile phase consisted of 0.05 M of monobasic potassium phosphate buffer and methanol (40:60, v/v). […] Briefly, each plasma sample (200 μL) was treated to eliminate proteins by adding methanol (1 mL), frozen for 30 min at −20 °C, and centrifuged at 15,000 rpm at 4 °C for 12 min. Then, the supernatant was evaporated under a vacuum, and the dried samples were frozen until analyzed. Samples of 25 μL were injected, and the analytes were eluted (flow 1.2 mL/min) from a column Zorbax Eclipse C-18 (150 × 4.6 mm; 5 μm). The absorbance was measured at a wavelength of 247 nm. The analyte retention time was 3.8 ± 0.2 min.
According to regulatory guidelines, the Lower Limit of Quantification (LLOQ) is defined as the lowest concentration of an analyte in a biological matrix that can be quantitatively determined with acceptable precision and accuracy. […] The LLOQ was determined based on the standard deviation of the response at the lowest concentration point, measured in triplicate, and was evaluated for both precision (% CV) and accuracy criteria. […] Consequently, only data up to 7 h were considered for pharmacokinetic analysis.
AUCs were calculated using the trapezoidal rule. Pharmacokinetic parameters were expressed as mean ± SEM. In this section, we report data as mean ± SEM to provide a measure of the central tendency along with the precision of the estimated mean. The standard error of the mean (SEM) is particularly useful for highlighting the reliability of the sample mean as an estimate of the true population mean, which is relevant when evaluating pharmacokinetic (PK) parameters under controlled conditions.

The test system of data set [2] is Trichinella spiralis encysted muscle larvae. The data set is described as follows: In vivo therapeutic efficacy in the parenteral stage of T. spiralis infection. The settings on record: for Dead larvae percentage: 15 mg MBZ/kg/day oral days 27, 28, 29 p-i, methylene blue, median (range). Details: species or system CBi/L and CBi+ mice. As for the experimental part:
Since CBi/L and CBi+ mice show significant body weight differences, as already stated, adult animals of both sexes were infected orally with an equivalent dose of 2 T. spiralis L1 larvae per g of the host’s body weight. Each animal was weighed before infection, 24–48 h before treatment, and before sacrifice. During the infection course, the general health of each mouse (overall physical condition and behavior) was monitored three times a week.
Six mice per line and sex were randomly assigned to the non-treated control (C) or treated groups (MBZ, NP, or Comp). Seven days after the last dose, mice were sacrificed to quantify encysted muscle larvae in the tongue. The tongue was excised, weighed, and digested overnight at 37 °C in a pepsin–HCl solution. Digestion was interrupted by adding saline, and the larvae were rinsed several times with saline to remove debris. After low-speed centrifugation (250–300 g, 5 min), the supernatant was carefully removed, and the pellet containing larvae was resuspended in 2 mL of saline. Larvae were counted under an optical microscope at 40× magnification using an acrylic plate. Each formulation’s anthelmintic efficacy was assessed by its effect on the larval muscle load (relative larval load: rLL, number of L1 larvae per g fresh tissue). Also, the effect of the formulations on the encysted L1 larvae viability (dead larvae percentage: proportion of dead muscle larvae/total muscle larvae recovered from each animal) was analyzed using the methylene blue supravital staining technique, as already described.

For data set [3] the test system is unchanged. Put plainly: Increasing doses of pure MBZ, therapeutic efficacy in T. spiralis-infected CBi+ mice. The conditions noted are these: CBi+ males and females, 30 or 45 mg of MBZ/kg, vs control mice or 15 mg of MBZ/kg. The class given is in vivo. How it is done:
As in the experiments described in Section 2.10.2, the pure drug was administered in the parenteral stage of infection on days 27, 28, and 29 p-i. Seven days after the last dose, mice were sacrificed, and the number and viability of the tongue’s encysted muscle larvae were determined to evaluate anthelmintic efficacy.

For data set [4] the following is noted: background statement, no reference given; cited from earlier work.

Marks after values point to notes of the source that are not given here.

By AUC(0-t) is commonly meant exposure summed from dosing to a finite time, without extrapolation to infinity. Read a high AUC(0-t) as high exposure. As usually defined, the Cmax is the highest concentration seen after dosing. The term Tmax denotes the time from dosing to the highest level.

Regarding `COC(=O)Nc1nc2ccc(C(=O)c3ccccc3)cc2[nH]1` [MBZ, Mebendazole], in data set [1], the “Particle Size (mean diameter)” value was found to be 10.4 ± 6.9 µm. Moreover, the “Survival Proportion After 30 h” value in the data set with T. spiralis female worms (T. spiralis females, 30 h incubation in RPMI 1640) was 79.3%. Besides, the “Median Survival” value in the data set with T. spiralis female worms (T. spiralis females, 30 h incubation in RPMI 1640, Kaplan–Meier) is listed as “Undefined”. In the data set on T. spiralis female worms (larvae released by females exposed to the antiparasitic solutions, 30 h), the “Effect on mobility of T. spiralis newborn larvae” value is reported as “Neither MBZ nor the formulations affected the mobility”. Moreover, the AUC(0-t) turned out to be 600 ± 80 ng·h/mL in the data set “in vivo” (female, CBi+); 3900 ± 630 ng·h/mL in the data set “in vivo” (female, CBi/L); 400 ± 200 ng·h/mL in “in vivo” (male, CBi+); 2700 ± 820 ng·h/mL in the data set “in vivo” (male, CBi/L). The Cmax was 200 ± 20 ng/mL in the data set “in vivo” (female, CBi+); 1300 ± 260 ng/mL in “in vivo” (female, CBi/L); 300 ± 110 ng/mL in “in vivo” (male, CBi+); 1300 ± 310 ng/mL in “in vivo” (male, CBi/L). The Tmax was 39.6 min in the data set “in vivo” (female, CBi+); 39.6 min in the data set “in vivo” (female, CBi/L); 39.6 min in “in vivo” (male, CBi+); 39.6 min in “in vivo” (male, CBi/L). Further, the Dead larvae percentage in data set [2] (CBi+ female) is recorded as 5 (5–11) ^a %; in data set [2] (CBi+ male), 11 (7–75) ^a %; in data set [2] (CBi/L female) it was 15 (6–25) ^b %; in data set [2] (CBi/L male) it was 27 (7–75) ^b %. In addition, the “Number of muscle larvae recovered compared to control animals” value in data set [2] (pure MBZ 15 mg/kg on days 27, 28, and 29 p-i) is “did not reduce the number of muscle larvae recovered”. Besides, the “Decrease in muscle rLL” value in data set [3] is reported as 40%. The Oral bioavailability entry in data set [4] was “approximately 20%”.

Values taken from PMC12389038 (Pharmaceutics, 2025).
